Assay [1] deals with T1, Human Tryptophan 2,3-dioxygenase (TDO) (Homo sapiens, UniProt P48775).
T1 construct: His tag (N); made in house; host or cells: E. coli
The assay is described as follows: Human TDO enzymatic assay (kynurenine level). It counts as biochemical. The note with it: 1 nM TDO, 350 μM L-Trp; geometric mean; read-out: TDO GMean: IC50 (μM) (Biochemical Assay). Summed up:
(§1)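 N-His human IDO (6 nM, 10 μM L-Trp, 5 μM methylene blue, 20 min) or TDO (1 nM, 350 μM L-Trp, 0.4 μM methylene blue, 70 min) run at room temp in pH 6.5 phosphate with ascorbate, catalase, Tween 20. TCA stop, 30 min 50 °C converts N-formylkynurenine to kynurenine; IC50 by nonlinear regression.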

Assay [2] concerns the target T2, Human Indoleamine 2,3-dioxygenase (IDO) (Homo sapiens, UniProt P14902).
T2 construct: His tag (N); made in house; host or cells: E. coli
Nature of the assay: Human IDO enzymatic assay (kynurenine level). It counts as biochemical. The note with it: 6 nM IDO, 10 μM L-Trp; geometric mean; read-out: IDO1 GMean: IC50 (μM) (Biochemical Assay). Summed up: as §1

T1 sequence (P48775 whole entry): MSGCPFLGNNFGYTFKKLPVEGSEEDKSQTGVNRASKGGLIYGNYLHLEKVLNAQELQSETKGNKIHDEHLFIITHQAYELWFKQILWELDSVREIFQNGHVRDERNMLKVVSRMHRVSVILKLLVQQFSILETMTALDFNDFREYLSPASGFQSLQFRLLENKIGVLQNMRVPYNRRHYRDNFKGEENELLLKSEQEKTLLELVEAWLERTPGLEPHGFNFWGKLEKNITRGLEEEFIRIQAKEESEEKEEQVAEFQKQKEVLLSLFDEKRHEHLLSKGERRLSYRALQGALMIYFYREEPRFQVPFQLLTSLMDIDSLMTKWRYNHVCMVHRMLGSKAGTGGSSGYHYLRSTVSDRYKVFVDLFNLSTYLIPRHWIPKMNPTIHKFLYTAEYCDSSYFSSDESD
T2 sequence (P14902 whole entry): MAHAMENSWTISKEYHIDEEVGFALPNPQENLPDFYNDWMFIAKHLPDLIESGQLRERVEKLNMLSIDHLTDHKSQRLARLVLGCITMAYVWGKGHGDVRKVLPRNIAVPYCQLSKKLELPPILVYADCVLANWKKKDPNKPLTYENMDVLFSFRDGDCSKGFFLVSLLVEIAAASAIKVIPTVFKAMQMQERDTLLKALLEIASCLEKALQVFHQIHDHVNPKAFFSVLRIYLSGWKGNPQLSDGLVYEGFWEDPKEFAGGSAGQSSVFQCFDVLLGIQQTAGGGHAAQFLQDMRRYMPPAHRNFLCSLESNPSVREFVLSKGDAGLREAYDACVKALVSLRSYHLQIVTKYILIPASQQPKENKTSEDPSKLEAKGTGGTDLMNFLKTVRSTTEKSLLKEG

In the case of `O=C(C1CCOCC1)N1CCC(C(F)(F)[C@H](O)c2c3c(cc4cn[nH]c24)CC3)CC1` [Compound P-0618, (R)-(4-(2-(5,6-dihydro-1H-cyclobuta[f]indazol-7-yl)-1,1-difluoro-2-hydroxyethyl)piperidin-1-yl)(tetrahydro-2H-pyran-4-yl)methanone], the IC50 in assay [1] and in assay [2] was 0.0001 to 10 µM in each case.

For the compound `O=C(Cc1ccnc(Cl)c1)N1CCC(C(F)(F)C(O)c2cc(Cl)cc3[nH]ncc23)CC1` (stereo not shown) [Compound P-0657, 1-(4-(2-(6-chloro-1H-indazol-4-yl)-1,1-difluoro-2-hydroxyethyl)piperidin-1-yl)-2-(2-chloropyridin-4-yl)ethan-1-one], the IC50 in assay [1] and in assay [2] was 0.0001 to 10 µM throughout.

As to `CCNC(=O)N1CCC(C(F)(F)[C@H](O)c2c3c(cc4cn[nH]c24)CC3)CC1` [Compound P-0627, (R)-4-(2-(5,6-dihydro-1H-cyclobuta[f]indazol-7-yl)-1,1-difluoro-2-hydroxyethyl)-N-ethylpiperidine-1-carboxamide], the IC50 in assay [1] and in assay [2] was 0.0001 to 10 µM throughout.

For `CN(C)C(=O)N1CCC(C(C)(C)[C@H](O)c2cc(Cl)cc3cn[nH]c23)CC1` [Compound P-0662, (S)-4-(1-(5-chloro-1H-indazol-7-yl)-1-hydroxy-2-methylpropan-2-yl)-N,N-dimethylpiperidine-1-carboxamide], the IC50 in assay [1] and in assay [2] was 0.0001 to 10 µM throughout.

As for `O=C(Nc1cccnc1)N1CCC(C(F)(F)[C@H](O)c2c3c(cc4cn[nH]c24)CC3)CC1` [Compound P-0636, (R)-4-(2-(5,6-dihydro-1H-cyclobuta[f]indazol-7-yl)-1,1-difluoro-2-hydroxyethyl)-N-(pyridin-3-yl)piperidine-1-carboxamide], the IC50 in assay [1] and in assay [2] was 0.0001 to 10 µM each time.

As to `CC(C)NC(=O)N1CCC(C(C)(C)[C@H](O)c2cc(Cl)cc3cn[nH]c23)CC1` [Compound P-0594, (S)-4-(1-(5-chloro-1H-indazol-7-yl)-1-hydroxy-2-methylpropan-2-yl)-N-isopropylpiperidine-1-carboxamide], the IC50 in assay [1] and in assay [2] was 0.0001 to 10 µM throughout.

Consider `CNC(=O)N1CCC(C(F)(F)[C@H](O)c2cc(Cl)cc3cn[nH]c23)CC1` [Compound P-0575, (R)-4-(2-(5-chloro-1H-indazol-7-yl)-1,1-difluoro-2-hydroxyethyl)-N-methylpiperidine-1-carboxamide], for which the IC50 in assay [1] and in assay [2] was 0.0001 to 10 µM throughout.

For `CC(C)(C1CCN(C(=O)C(F)(F)F)CC1)[C@H](O)c1cc(Cl)cc2cn[nH]c12` [Compound P-0663, (S)-1-(4-(1-(5-chloro-1H-indazol-7-yl)-1-hydroxy-2-methylpropan-2-yl)piperidin-1-yl)-2,2,2-trifluoroethan-1-one], the IC50 in assay [1] and in assay [2] was 0.0001 to 10 µM throughout.

As for `COCC(=O)N1CCC(C(F)(F)[C@H](O)c2c3c(cc4cn[nH]c24)CC3)CC1` [Compound P-0614, (R)-1-(4-(2-(5,6-dihydro-1H-cyclobuta[f]indazol-7-yl)-1,1-difluoro-2-hydroxyethyl)piperidin-1-yl)-2-methoxyethan-1-one], the IC50 in assay [1] and in assay [2] was 0.0001 to 10 µM in each case.

Turning to `CC(C)(C1CCN(C(=O)N[C@H]2C[C@H](O)C2)CC1)[C@H](O)c1cc(Cl)cc2cn[nH]c12` [Compound P-0600, 4-((S)-1-(5-chloro-1H-indazol-7-yl)-1-hydroxy-2-methylpropan-2-yl)-N-((1r,3S)-3-hydroxycyclobutyl) piperidine-1-carboxamide], the IC50 in assay [1] and in assay [2] was 0.0001 to 10 µM each time.

For `CC(C)(C1CCN(C(=O)C2(F)CC2)CC1)C(O)c1cc(Cl)cc2[nH]ncc12` (stereo not shown) [Compound P-0661, (4-(1-(6-chloro-1H-indazol-4-yl)-1-hydroxy-2-methylpropan-2-yl)piperidin-1-yl)(1-fluorocyclopropyl) methanone], the IC50 in assay [1] and in assay [2] was 0.0001 to 10 µM throughout.

For `O=C(CC1CCOCC1)N1CCC(C(F)(F)[C@H](O)c2c3c(cc4cn[nH]c24)CC3)CC1` [Compound P-0617, (R)-1-(4-(2-(5,6-dihydro-1H-cyclobuta[f]indazol-7-yl)-1,1-difluoro-2-hydroxyethyl)piperidin-1-yl)-2-(tetrahydro-2H-pyran-4-yl)ethan-1-one], the IC50 in assay [1] and in assay [2] was 0.0001 to 10 µM in each case.

With `CC(C)(C1CCN(C(=O)Nc2ccc(F)cn2)CC1)[C@H](O)c1cc(Cl)cc2cn[nH]c12` [Compound P-0658, (S)-4-(1-(5-chloro-1H-indazol-7-yl)-1-hydroxy-2-methylpropan-2-yl)-N-(5-fluoropyridin-2-yl)piperidine-1-carboxamide], the IC50 in assay [1] and in assay [2] was 0.0001 to 10 µM in each case.

With `OC(c1ccc(OC(F)(F)F)cc1)c1cccc2cncn12` (stereo not shown) [Compound P-0065, imidazo[1,5-a]pyridin-5-yl(4-(trifluoromethoxy)phenyl)methanol], the IC50 – broadly, the midpoint of a concentration-inhibition curve – in assay [1] is 10 to 100 µM; in assay [2], 0.0001 to 10 µM.

With `O=C(C1CC1)N1CCC(C(F)(F)[C@H](O)c2c3c(cc4cn[nH]c24)CC3)CC1` [Compound P-0611, (R)-cyclopropyl(4-(2-(5,6-dihydro-1H-cyclobuta[f]indazol-7-yl)-1,1-difluoro-2-hydroxyethyl)piperidin-1-yl)methanone], the IC50 in assay [1] and in assay [2] was 0.0001 to 10 µM in each case.

As to `CC(C)(C1CCN(C(=O)NCc2ccc(C#N)nc2)CC1)[C@H](O)c1cc(Cl)cc2cn[nH]c12` [Compound P-0590, (S)-4-(1-(5-chloro-1H-indazol-7-yl)-1-hydroxy-2-methylpropan-2-yl)-N-((6-cyanopyridin-3-yl)methyl)piperidine-1-carboxamide], the IC50 in assay [1] and in assay [2] was 0.0001 to 10 µM each time.

Regarding `CC(C)(C1CCN(C(=O)NCCCF)CC1)[C@H](O)c1cc(Cl)cc2cn[nH]c12` [Compound P-0596, (S)-4-(1-(5-chloro-1H-indazol-7-yl)-1-hydroxy-2-methylpropan-2-yl)-N-(3-fluoropropyl) piperidine-1-carboxamide], the IC50 in assay [1] and in assay [2] was 0.0001 to 10 µM each time.

With `CONC(=O)N1CCC(C(C)(C)[C@H](O)c2cc(Cl)cc3cn[nH]c23)CC1` [Compound P-0598, (S)-4-(1-(5-chloro-1H-indazol-7-yl)-1-hydroxy-2-methylpropan-2-yl)-N-methoxypiperidine-1-carboxamide], the IC50 in assay [1] and in assay [2] was 0.0001 to 10 µM throughout.

Take `O=C(Cc1ccnc(Cl)c1)N1CCC(C(F)(F)[C@H](O)c2cc(Cl)cc3cn[nH]c23)CC1` [Compound P-0576, (R)-1-(4-(2-(5-chloro-1H-indazol-7-yl)-1,1-difluoro-2-hydroxyethyl)piperidin-1-yl)-2-(2-chloropyridin-4-yl)ethan-1-one]: the IC50 in assay [1] and in assay [2] was 0.0001 to 10 µM throughout.

For `O=C(Cc1ccc(F)c(Cl)c1)N1CCC(C(F)(F)[C@H](O)c2cc(Cl)cc3cn[nH]c23)CC1` [Compound P-0572, (R)-1-(4-(2-(5-chloro-1H-indazol-7-yl)-1,1-difluoro-2-hydroxyethyl)piperidin-1-yl)-2-(3-chloro-4-fluorophenyl)ethan-1-one], the IC50 in assay [1] and in assay [2] was 0.0001 to 10 µM each time.

With `CC1(C(O)c2cc(Cl)c(F)c3cn[nH]c23)CC(F)(F)C1` (stereo not shown) [Compound P-0650, (5-chloro-4-fluoro-1H-indazol-7-yl)(3,3-difluoro-1-methylcyclobutyl)methanol], the IC50 in assay [1] and in assay [2] was 0.0001 to 10 µM each time.

`O=C(NCC1CC1)N1CCC(C(F)(F)[C@H](O)c2c3c(cc4cn[nH]c24)CC3)CC1` [Compound P-0631, (R)-N-(cyclopropylmethyl)-4-(2-(5,6-dihydro-1H-cyclobuta[f]indazol-7-yl)-1,1-difluoro-2-hydroxyethyl) piperidine-1-carboxamide]: the IC50 in assay [1] and in assay [2] was 0.0001 to 10 µM in each case.

On to `O=C(Cc1ccc(F)c(Cl)c1)N1CCC(C(F)(F)[C@H](O)c2c3c(cc4cn[nH]c24)CC3)CC1` [Compound P-0625, (R)-2-(3-chloro-4-fluorophenyl)-1-(4-(2-(5,6-dihydro-1H-cyclobuta[f]indazol 7-yl)-1,1-difluoro-2-hydroxyethyl)piperidin-1-yl) ethan-1-one], for which the IC50 in assay [1] and in assay [2] was 0.0001 to 10 µM each time.

Regarding `CC(C)(C1CCN(C(=O)NCc2ccc(C#N)cc2)CC1)[C@H](O)c1cc(Cl)cc2cn[nH]c12` [Compound P-0584, (S)-4-(1-(5-chloro-1H-indazol-7-yl)-1-hydroxy-2-methylpropan-2-yl)-N-(4-cyanobenzyl) piperidine-1-carboxamide], the IC50 in assay [1] and in assay [2] was 0.0001 to 10 µM each time.

`CC(C)(C1CCN(C(=O)NCc2ccnnc2)CC1)[C@H](O)c1cc(Cl)cc2cn[nH]c12` [Compound P-0681, (S)-4-(1-(5-chloro-1H-indazol-7-yl)-1-hydroxy-2-methylpropan-2-yl)-N-(pyridazin-4-ylmethyl)piperidine-1-carboxamide]: the IC50 in assay [1] and in assay [2] was 0.0001 to 10 µM throughout.

As to `O=C(CN1CCS(=O)(=O)CC1)N1CCC(C(F)(F)[C@H](O)c2c3c(cc4cn[nH]c24)CC3)CC1` [Compound P-0623, (R)-1-(4-(2-(5,6-dihydro-1H-cyclobuta[f]indazol-7-yl)-1,1-difluoro-2-hydroxyethyl)piperidin-1-yl)-2-(1,1-dioxidothiomorpholino) ethan-1-one], the IC50 in assay [1] and in assay [2] was 0.0001 to 10 µM in each case.
